Results as given in ChEMBL document CHEMBL3046341, “Synthesis of an indolizidinedione oxime inhibitor of acetyl-coenzyme a carboxylase (ACCase)” (Bioorg Med Chem Lett, 1994).

Experiment: Inhibition of acetyl-coenzyme A carboxylase
Conditions: read-out: I50

IC50	Compound
80 µM	C=CCO/N=C(\CCC)C1=C(O)N2CCCCC2C1=O (stereo not drawn)
15 µM	O=C1C(c2ccc(Cl)cc2Cl)=C(O)N2CCCCC12 (stereo not drawn)

Compound	IC50
CCO/N=C(\CC)C1=C(O)CC(c2c(C)cc(C)cc2C)CC1=O (stereo not drawn) [TRALKOXYDIM]	1 µM
